From the NIST ThermoML archive (doi:10.1021/je301164d)
Numbers after ± are expanded uncertainties.

Conditions: Fluid (supercritical or subcritical phases)

FC(C(F)(F)F)C(F)(F)F [1,1,1,2,3,3,3-heptafluoropropane]
speed of sound (280 K, 603.72 kPa): 494.1 ± 0.23 m/s
speed of sound (280 K, 1104.4 kPa): 498.92 ± 0.23 m/s
speed of sound (280 K, 1604.7 kPa): 503.64 ± 0.23 m/s
speed of sound (280 K, 2105 kPa): 508.26 ± 0.23 m/s
speed of sound (280 K, 3105.8 kPa): 517.26 ± 0.23 m/s
speed of sound (280 K, 4106.2 kPa): 525.95 ± 0.24 m/s
speed of sound (280 K, 5107.1 kPa): 534.35 ± 0.24 m/s
speed of sound (280 K, 6107.9 kPa): 542.49 ± 0.24 m/s
speed of sound (280 K, 7109.3 kPa): 550.4 ± 0.25 m/s
speed of sound (280 K, 8110 kPa): 558.07 ± 0.25 m/s
speed of sound (280 K, 9110.7 kPa): 565.55 ± 0.25 m/s
speed of sound (280 K, 10111 kPa): 572.83 ± 0.26 m/s
speed of sound (280 K, 12613 kPa): 590.29 ± 0.26 m/s
speed of sound (280 K, 15115 kPa): 606.8 ± 0.27 m/s
speed of sound (280 K, 17616 kPa): 622.5 ± 0.27 m/s
speed of sound (280 K, 20118 kPa): 637.48 ± 0.28 m/s
speed of sound (280 K, 35129 kPa): 716.11 ± 0.31 m/s
speed of sound (280 K, 40132 kPa): 739.1 ± 0.32 m/s
speed of sound (280 K, 45136 kPa): 760.88 ± 0.33 m/s
speed of sound (280 K, 50139 kPa): 781.61 ± 0.34 m/s
speed of sound (280.01 K, 25122 kPa): 665.6 ± 0.29 m/s
speed of sound (280.01 K, 30125 kPa): 691.69 ± 0.3 m/s
speed of sound (299.99 K, 1103 kPa): 417.61 ± 0.2 m/s
speed of sound (299.99 K, 1603.4 kPa): 423.61 ± 0.2 m/s
speed of sound (299.99 K, 2103.8 kPa): 429.45 ± 0.2 m/s
speed of sound (300 K, 3106.4 kPa): 440.66 ± 0.21 m/s
speed of sound (300 K, 4107.2 kPa): 451.3 ± 0.21 m/s
speed of sound (300 K, 5107.9 kPa): 461.45 ± 0.21 m/s
speed of sound (300 K, 6108.6 kPa): 471.17 ± 0.22 m/s
speed of sound (300 K, 7109.4 kPa): 480.51 ± 0.22 m/s
speed of sound (300 K, 8110.1 kPa): 489.5 ± 0.23 m/s
speed of sound (300 K, 9110.1 kPa): 498.18 ± 0.23 m/s
speed of sound (300 K, 10111 kPa): 506.58 ± 0.23 m/s
speed of sound (300 K, 12612 kPa): 526.5 ± 0.24 m/s
speed of sound (300 K, 15114 kPa): 545.09 ± 0.24 m/s
speed of sound (300 K, 17616 kPa): 562.57 ± 0.25 m/s
speed of sound (300 K, 20118 kPa): 579.11 ± 0.26 m/s
speed of sound (300 K, 25122 kPa): 609.85 ± 0.27 m/s
speed of sound (300 K, 30126 kPa): 638.04 ± 0.28 m/s
speed of sound (300 K, 35129 kPa): 664.19 ± 0.29 m/s
speed of sound (300 K, 40132 kPa): 688.66 ± 0.3 m/s
speed of sound (300 K, 45136 kPa): 711.71 ± 0.31 m/s
speed of sound (300 K, 50139 kPa): 733.55 ± 0.32 m/s
speed of sound (320 K, 1104.2 kPa): 332.96 ± 0.17 m/s
speed of sound (320 K, 2104.9 kPa): 349.11 ± 0.18 m/s
speed of sound (320 K, 3105.5 kPa): 363.82 ± 0.18 m/s
speed of sound (320 K, 4105.6 kPa): 377.39 ± 0.19 m/s
speed of sound (320 K, 5106.4 kPa): 390.04 ± 0.19 m/s
speed of sound (320 K, 6107.1 kPa): 401.94 ± 0.19 m/s
speed of sound (320 K, 7107.7 kPa): 413.18 ± 0.2 m/s
speed of sound (320 K, 8108.4 kPa): 423.87 ± 0.2 m/s
speed of sound (320 K, 9109 kPa): 434.06 ± 0.21 m/s
speed of sound (320 K, 10110 kPa): 443.83 ± 0.21 m/s
speed of sound (320 K, 12612 kPa): 466.66 ± 0.22 m/s
speed of sound (320 K, 15113 kPa): 487.61 ± 0.23 m/s
speed of sound (320 K, 17615 kPa): 507.06 ± 0.23 m/s
speed of sound (320 K, 20117 kPa): 525.27 ± 0.24 m/s
speed of sound (320 K, 25120 kPa): 558.72 ± 0.25 m/s
speed of sound (320 K, 30124 kPa): 589.03 ± 0.26 m/s
speed of sound (320 K, 35128 kPa): 616.9 ± 0.27 m/s
speed of sound (320 K, 40131 kPa): 642.8 ± 0.28 m/s
speed of sound (320 K, 45135 kPa): 667.06 ± 0.29 m/s
speed of sound (320.01 K, 50138 kPa): 689.95 ± 0.3 m/s
speed of sound (340 K, 1603.1 kPa): 249.98 ± 0.14 m/s
speed of sound (340 K, 2103.4 kPa): 262.38 ± 0.15 m/s
speed of sound (340 K, 3104.1 kPa): 283.96 ± 0.15 m/s
speed of sound (340 K, 4104.8 kPa): 302.59 ± 0.16 m/s
speed of sound (340 K, 5105.4 kPa): 319.17 ± 0.17 m/s
speed of sound (340 K, 6106 kPa): 334.23 ± 0.17 m/s
speed of sound (340 K, 7106.7 kPa): 348.1 ± 0.18 m/s
speed of sound (340 K, 8108.1 kPa): 361.03 ± 0.18 m/s
speed of sound (340 K, 9108.9 kPa): 373.15 ± 0.18 m/s
speed of sound (340 K, 10110 kPa): 384.6 ± 0.19 m/s
speed of sound (340 K, 12612 kPa): 410.84 ± 0.2 m/s
speed of sound (340 K, 15113 kPa): 434.43 ± 0.21 m/s
speed of sound (340 K, 17615 kPa): 456 ± 0.21 m/s
speed of sound (340 K, 20117 kPa): 475.96 ± 0.22 m/s
speed of sound (340 K, 25120 kPa): 512.15 ± 0.23 m/s
speed of sound (340 K, 30124 kPa): 544.54 ± 0.25 m/s
speed of sound (340 K, 35127 kPa): 574.06 ± 0.26 m/s
speed of sound (340 K, 40130 kPa): 601.3 ± 0.27 m/s
speed of sound (340 K, 45134 kPa): 626.7 ± 0.28 m/s
speed of sound (340 K, 50138 kPa): 650.55 ± 0.29 m/s
speed of sound (360 K, 3604.3 kPa): 209.76 ± 0.13 m/s
speed of sound (360 K, 4104.8 kPa): 223.69 ± 0.14 m/s
speed of sound (360 K, 5105.6 kPa): 247.37 ± 0.14 m/s
speed of sound (360 K, 6106.5 kPa): 267.43 ± 0.15 m/s
speed of sound (360 K, 7107.4 kPa): 285.07 ± 0.15 m/s
speed of sound (360.01 K, 8109.2 kPa): 300.98 ± 0.16 m/s
speed of sound (360.01 K, 9110 kPa): 315.53 ± 0.17 m/s
speed of sound (360.01 K, 10111 kPa): 329.01 ± 0.17 m/s
speed of sound (360.01 K, 12612 kPa): 359.17 ± 0.18 m/s
speed of sound (360.01 K, 15114 kPa): 385.62 ± 0.19 m/s
speed of sound (360.01 K, 17616 kPa): 409.39 ± 0.2 m/s
speed of sound (360.01 K, 20118 kPa): 431.12 ± 0.2 m/s
speed of sound (360.01 K, 25122 kPa): 470 ± 0.22 m/s
speed of sound (360.01 K, 30125 kPa): 504.36 ± 0.23 m/s
speed of sound (360.01 K, 35129 kPa): 535.41 ± 0.24 m/s
speed of sound (360.01 K, 40132 kPa): 563.88 ± 0.25 m/s
speed of sound (360.01 K, 45135 kPa): 590.29 ± 0.26 m/s
speed of sound (360.01 K, 50139 kPa): 615 ± 0.27 m/s
speed of sound (380 K, 7107.3 kPa): 224.9 ± 0.14 m/s
speed of sound (380 K, 8108.1 kPa): 244.61 ± 0.14 m/s
speed of sound (380 K, 9108.9 kPa): 262.08 ± 0.15 m/s
speed of sound (380 K, 10110 kPa): 277.88 ± 0.15 m/s
speed of sound (380 K, 11110 kPa): 292.38 ± 0.16 m/s
speed of sound (380 K, 12111 kPa): 305.84 ± 0.16 m/s
speed of sound (380 K, 13112 kPa): 318.45 ± 0.17 m/s
speed of sound (380 K, 14112 kPa): 330.32 ± 0.17 m/s
speed of sound (380 K, 15113 kPa): 341.58 ± 0.17 m/s
speed of sound (380 K, 17615 kPa): 367.5 ± 0.18 m/s
speed of sound (380 K, 20117 kPa): 390.9 ± 0.19 m/s
speed of sound (380 K, 22618 kPa): 412.36 ± 0.2 m/s
speed of sound (380 K, 25120 kPa): 432.25 ± 0.21 m/s
speed of sound (380 K, 30123 kPa): 468.39 ± 0.22 m/s
speed of sound (380 K, 35127 kPa): 500.79 ± 0.23 m/s
speed of sound (380 K, 40130 kPa): 530.34 ± 0.24 m/s
speed of sound (380 K, 45134 kPa): 557.64 ± 0.25 m/s
speed of sound (380 K, 50137 kPa): 583.09 ± 0.26 m/s
speed of sound (400 K, 10108 kPa): 232.81 ± 0.14 m/s
speed of sound (400 K, 11109 kPa): 249.04 ± 0.14 m/s
speed of sound (400 K, 12109 kPa): 263.93 ± 0.15 m/s
speed of sound (400 K, 13110 kPa): 277.75 ± 0.15 m/s
speed of sound (400 K, 14111 kPa): 290.67 ± 0.16 m/s
speed of sound (400 K, 15112 kPa): 302.83 ± 0.16 m/s
speed of sound (400 K, 16112 kPa): 314.36 ± 0.17 m/s
speed of sound (400 K, 17113 kPa): 325.31 ± 0.17 m/s
speed of sound (400 K, 18114 kPa): 335.78 ± 0.17 m/s
speed of sound (400 K, 19115 kPa): 345.8 ± 0.17 m/s
speed of sound (400 K, 20116 kPa): 355.43 ± 0.18 m/s
speed of sound (400 K, 22618 kPa): 378.04 ± 0.19 m/s
speed of sound (400 K, 25119 kPa): 398.88 ± 0.19 m/s
speed of sound (400 K, 27621 kPa): 418.29 ± 0.2 m/s
speed of sound (400 K, 30123 kPa): 436.5 ± 0.21 m/s
speed of sound (400 K, 35126 kPa): 470.02 ± 0.22 m/s
speed of sound (400 K, 40130 kPa): 500.46 ± 0.23 m/s
speed of sound (400 K, 45133 kPa): 528.48 ± 0.24 m/s
speed of sound (400 K, 50137 kPa): 554.55 ± 0.25 m/s
speed of sound (420 K, 12108 kPa): 229.23 ± 0.14 m/s
speed of sound (420 K, 13109 kPa): 243.75 ± 0.14 m/s
speed of sound (420 K, 14110 kPa): 257.31 ± 0.14 m/s
speed of sound (420 K, 15111 kPa): 270.06 ± 0.15 m/s
speed of sound (420 K, 16111 kPa): 282.11 ± 0.15 m/s
speed of sound (420 K, 17112 kPa): 293.55 ± 0.16 m/s
speed of sound (420 K, 18113 kPa): 304.45 ± 0.16 m/s
speed of sound (420 K, 19114 kPa): 314.88 ± 0.17 m/s
speed of sound (420 K, 20115 kPa): 324.88 ± 0.17 m/s
speed of sound (420 K, 22617 kPa): 348.3 ± 0.18 m/s
speed of sound (420 K, 25118 kPa): 369.82 ± 0.18 m/s
speed of sound (420 K, 27620 kPa): 389.82 ± 0.19 m/s
speed of sound (420 K, 30122 kPa): 408.54 ± 0.2 m/s
speed of sound (420 K, 35125 kPa): 442.89 ± 0.21 m/s
speed of sound (420 K, 40129 kPa): 474.01 ± 0.22 m/s
speed of sound (420 K, 45133 kPa): 502.59 ± 0.23 m/s
speed of sound (420 K, 50136 kPa): 529.12 ± 0.24 m/s
speed of sound (420 K, 55140 kPa): 553.96 ± 0.25 m/s
speed of sound (420 K, 60143 kPa): 577.36 ± 0.26 m/s
speed of sound (420 K, 70150 kPa): 620.64 ± 0.28 m/s
speed of sound (420 K, 80158 kPa): 660.12 ± 0.29 m/s
speed of sound (420 K, 90165 kPa): 696.59 ± 0.31 m/s
